We go through 6 compounds from US8324199B2, “Pyridazine derivatives as factor xia inhibitors” (Bristol-Myers Squibb Company, priority 2008, dated 2012).

T1 sequence (P03951 388-625 limits assumed): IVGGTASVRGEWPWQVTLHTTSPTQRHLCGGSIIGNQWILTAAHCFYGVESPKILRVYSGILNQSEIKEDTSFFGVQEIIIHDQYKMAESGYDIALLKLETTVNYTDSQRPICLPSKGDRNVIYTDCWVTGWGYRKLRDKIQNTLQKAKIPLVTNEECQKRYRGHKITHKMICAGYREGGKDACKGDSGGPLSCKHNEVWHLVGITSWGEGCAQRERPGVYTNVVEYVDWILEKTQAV
T1 sequence (P03951 19-387 partner limits assumed): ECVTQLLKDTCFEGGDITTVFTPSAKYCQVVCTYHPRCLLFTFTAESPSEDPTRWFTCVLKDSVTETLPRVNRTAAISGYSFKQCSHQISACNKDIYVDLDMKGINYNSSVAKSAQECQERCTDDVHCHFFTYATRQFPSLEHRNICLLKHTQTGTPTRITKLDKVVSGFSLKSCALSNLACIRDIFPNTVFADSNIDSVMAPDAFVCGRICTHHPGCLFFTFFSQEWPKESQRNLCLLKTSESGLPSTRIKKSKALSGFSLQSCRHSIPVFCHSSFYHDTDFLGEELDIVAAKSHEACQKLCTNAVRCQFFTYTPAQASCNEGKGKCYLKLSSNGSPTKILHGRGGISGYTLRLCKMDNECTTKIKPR

This test concerns the target T1, purified human Factor XIa (Homo sapiens, UniProt P03951).
T1 construct: purchased Haematologic Technologies
Put plainly: Factor XIa assay (chromogenic substrate hydrolysis, Ki). The format is biochemical. As to conditions: purified human Factor XIa 75-200 pM, substrate S-2366, 50 mM HEPES pH 7.4. The procedure:
The effectiveness of compounds of the present invention as inhibitors of the coagulation factors XIa, VIIa, IXa, Xa, XIIa, plasma kallikrein or thrombin, can be determined using a relevant purified serine protease, respectively, and an appropriate synthetic substrate. The rate of hydrolysis of the chromogenic or fluorogenic substrate by the relevant serine protease was measured both in the absence and presence of compounds of the present invention. […] A decrease in the rate of absorbance or fluorescence change in the presence of inhibitor is indicative of enzyme inhibition. Such methods are known to one skilled in the art. The results of this assay are expressed as the inhibitory constant, Ki.
Factor XIa determinations were made in 50 mM HEPES buffer at pH 7.4 containing 145 mM NaCl, 5 mM KCl, and 0.1% PEG 8000 (polyethylene glycol; JT Baker or Fisher Scientific). Determinations were made using purified human Factor XIa at a final concentration of 75-200 pM (Haematologic Technologies) and the synthetic substrate S-2366 (pyroGlu-Pro-Arg-pNA; Chromogenix or AnaSpec) at a concentration of 0.0002-0.001 M.
The Michaelis constant, Km, for substrate hydrolysis by each protease, was determined at 25° C. using the method of Lineweaver and Burk. Values of Ki were determined by allowing the protease to react with the substrate in the presence of the inhibitor. Reactions were allowed to go for periods of 20-180 minutes (depending on the protease) and the velocities (rate of absorbance or fluorescence change versus time) were measured. The following relationships were used to calculate Ki values: (vo−vs)/vs=I/(Ki(1+S/Km)) for a competitive inhibitor with one binding site; or vs/vo=A+((B−A)/1+((IC50/(I)^n))); and Ki=IC50/(1+S/Km) for a competitive inhibitor where: […]
Regarding `COC(=O)Nc1ccc(-c2cc(C(Cc3ccccc3)NC(=O)/C=C/c3cc(Cl)ccc3-n3ccnc3)c(Cl)nn2)cc1` (racemic) [Example 8, (±)-(E)-Methyl 4-(6-chloro-5-(1-(3-(5-chloro-2-(1H-imidazol-1-yl)phenyl)acrylamido)-2-phenylethyl)pyridazin-3-yl)phenylcarbamate], the affinity, expressed as Ki, was 1160 nM.

As to `COC(=O)Nc1ccc(-c2cc(C(C)NC(=O)/C=C/c3cc(Cl)ccc3-n3cnnn3)c(Cl)nn2)cc1` (racemic) [Example 11, (±)-(E)-Methyl 4-(6-chloro-5-(1-(3-(5-chloro-2-(1H-tetrazol-1-yl)phenyl)acrylamido)ethyl)pyridazin-3-yl)phenylcarbamate], the affinity, expressed as Ki, was 52 nM.

For the compound `O=C(/C=C/c1cc(Cl)ccc1-n1cnnn1)N[C@@H](Cc1ccccc1)c1cc(-c2ccc(NC(=O)OC3CNC3)cc2)cnn1` [Example 89, (S,E)-Azetidin-3-yl 4-(6-(1-(3-(5-chloro-2-(1H-tetrazol-1-yl)phenyl)acrylamido)-2-phenylethyl)pyridazin-4-yl)phenylcarbamate], the Ki stood at 141 nM.

`COC(=O)Nc1ccc(-c2cc([C@H](CC3CCCN(C(=O)C4CC4)C3)NC(=O)/C=C/c3cc(Cl)ccc3-n3cnnn3)nnc2Cl)cc1` (stereo partly drawn) [Example 112, Methyl 4-(3-chloro-6-((1S)-1-((E)-3-(5-chloro-2-(1 H-tetrazol-1-yl)phenyl)acrylamido)-2-(1-(cyclopropanecarbonyl)piperidin-3-yl)ethyl)pyridazin-4-yl)phenylcarbamate]: the affinity, expressed as Ki, was 6360 nM. This Ki lies about 45-fold higher than the previous one.

`COC(=O)Nc1ccc(-c2cc([C@H](Cc3cscn3)NC(=O)/C=C/c3cc(Cl)ccc3-n3cnnn3)nnc2Cl)cc1` [Example 123, (S,E)-Methyl 4-(3-chloro-6-(1-(3-(5-chloro-2-(1H-tetrazol-1-yl)phenyl)acrylamido)-2-(thiazol-4-yl)ethyl)pyridazin-4-yl)phenylcarbamate]: the Ki stood at 57 nM. This Ki is about 110-fold lower than that of the compound before.

In the case of `O=C(/C=C/c1cc(Cl)ccc1-n1cnnn1)N[C@@H](Cc1ccccc1)c1cc(-c2ccc3[nH]c(=O)cc(O)c3c2)cnn1` [Example 78, (S,E)-3-(5-Chloro-2-(1H-tetrazol-1-yl)phenyl)-N-(1-(5-(4-hydroxy-2-oxo-1,2-dihydroquinolin-6-yl)pyridazin-3-yl)-2-phenylethyl)acrylamide], the Ki amounted to 0.84 nM.

In general, Ki refers to a measure of affinity in units of concentration, obtained from inhibition or displacement. Read a low Ki as higher affinity.
